“Also recorded” adds a separate entry of the source.
Key:
Smooth muscle cells = experiment: 3H-thymidine incorporation into smooth muscle cells (Example 3, Table III); type: cell-based; conditions: for effect on 3H-thymidine incorporation / response to serotonin: cyproheptadine 10^-7 M, similar = as with cyproheptadine; for CPM/Well (3H-thymidine incorporation): about 36 h, mean ± SEM, n = 4; for % Increase (3H-thymidine incorporation): versus control
Protocol: In this experiment, stimulation of ^3 H-thymidine incorporation is used as an index of the ability of a compound to promote smooth muscle cell proliferation. Smooth muscle cells are seeded in 96 well Linbro racks (5 mm diameter/well) and allowed to grow for 72 hours. […] After approximately 36 hours, the cells are washed with saline, fixed with 10% TCA, washed with water, lysed with 1% SDS, and the lysate counted for ^3 H. This procedure allows the investigator to assess the amount of ^3 H-thymidine taken up by smooth muscle cells and incorporated into DNA.

[1] = tested on: Smooth muscle cells (BASMC); experiment: Smooth muscle cell number, 96 h incubation with serotonin, PDGF or serotonin receptor blocker (Example 2, Table II); type: cell-based, bovine; conditions: for effect on serotonin-induced increase in smooth muscle cell number / Cell Number/Plate: 96 h, 2.5% platelet-poor plasma; for effect on serotonin-induced increase in smooth muscle cell number: similar = as with cyproheptadine; for Cell Number/Plate: mean ± SEM, n = 6
Protocol: Smooth muscle cells are grown from explants of bovine aortic media as described by Coughlin, et al (Platelet-Dependent Stimulation of Prostacyclin Synthesis by Platelet Derived Growth Factor, Nature, 288, pp. 600-602, 1980). Cells are seeded at 10^5 cells per 35 mm tissue culture well in Dulbecco's Modified Eagle Medium containing 10% calf serum and allowed to grow for 24 hours. The serum-containing medium is then removed and the cells are allowed to become quiescent in Medium 199 for 24 hours. The quiescent cultures are then incubated for 72 hours in Medium 199, with or without the mitogen to be tested. After the 72-hour incubation period, the cells are harvested for cell-number determination by Coulter Counter.
Smooth muscle cells are seeded and made quiescent as described in Example 1. Cultures are then treated with serotonin, PDGF or cyproheptadine, a serotonin receptor blocker. The cultures are then incubated for 96 hours in Medium 199 containing 2.5% platelet-poor plasma and the treatment to be tested.

[2] = tested on: aortic smooth muscle cell proliferation after vascular injury; experiment: Specific activity of aortic smooth muscle cell DNA after balloon catheter vascular injury (Example 4, Table IV); type: in vivo, rat; parameters: Specific Activity for smooth muscle cell DNA, repeat test: concentration or dose not given beside the values; conditions: for inhibition of injury-induced smooth muscle cell proliferation: after experimental vascular injury, similar = as with methiothepin 10 mg/kg i.p.; for dose dependent Specific Activity, methiothepin: vehicle = 100; for Specific Activity for smooth muscle cell DNA, repeat test: untreated 100, vehicle 92, standard error (%) in own column
Protocol: Rat aortas are denuded of endothelium by passing a catheter with an inflated balloon at its tip down the length of the blood vessel. In animal models, this type of vascular injury has been shown by Goldberg, et al (Vascular Smooth Muscle Cell Kinetics: A New Assay For Studying Patterns of Cellular Proliferation In Vivo, Science, 205, 920-922, 1979), to stimulate formation of vascular lesions resembling those of human atherosclerosis 48 hours after injury. The rats are injected intravenously with ^3 H-thymidine, which is incorporated into the DNA of proliferating smooth muscle cells. After one hour, the specific activity of aortic smooth muscle cell DNA is determined and used as an index of smooth muscle cell proliferation in the injured vessel wall.

[3] = tested on: vascular lesions of the aorta after de-endothelialization; experiment: Lesion area after aortic de-endothelialization (Example 5, Table V); type: in vivo, rat (male Sprague-Dawley); conditions: 25 mg/kg by gavage
From the text: The use of serotonin antagonists in preventing or impeding arteriosclerotic lesion is indicated in vivo essentially in accordance with the de-endothelialization procedure of Tiell, et al (Influence of the Pituitary on Arterial Intima Proliferation in the Rat, Circulation Research, Vol. 42, No. 5, […], May 1978). Male Sprague-Dawley rats weighing 300-360 grams are fed a constant formula rodent lab chow and water ad libitum for two weeks prior to the start of the test. For two days before de-endothelialization and for the following 14 days until sacrifice, the animals receive either a placebo or 1 to 200 milligrams per kilogram per day of test compound. On the day of de-endothelialization, the drug is administered intravenously at one-tenth the oral dosage. De-endothelialization is carried out in the aortas of the anesthetized animals by balloon catheterization. The animals are weighed daily from the time of dosing and their behavior is recorded 3 to 4 hours following administration of the test compound. Fourteen days after catheterization, whole body perfusion fixation is carried out at 37° C. with 3% buffered glutaraldehyde in 0.15 M sodium cacodylate at pH 7.4 under 90-100 millimeters hydrostatic pressure. The aorta is removed, cut into 10 equal segments, and following two additional hours in the buffered glutaraldehyde, is treated with 1% osmium tetroxide, dehydrated, infiltrated with Squer's resin and cured. The segments are stained with Stevenal's blue and basic fuchsin, and the lesion areas is determined with a zeiss standard microscope and Videoplan computerized image analyzer. Please see examples for results.
Male Sprague-Dawley rats weighing 300-360 grams are individually ear tagged, housed and allowed to acclimate for two weeks prior to the start of the test. A constant formula rodent lab chow from Ralston Purina and water are available to the animals ad libitum.
For two days prior to de-endothelialization and for 14 days after, pizotyline at a dose of 25 milligrams per kilogram and placebo are administered by gavage in physiological saline to nine drug animals and 19 control animals. All animals are dosed between 8:00 and 10:00 A.M. daily. […] The animals are weighed daily at the time of dosing and behavior for each animal is recorded three to four hours after dosing. […]
On the day of de-endothelialization, the animals are anesthetized by ether inhalation and catheterization is carried out by the following procedure. […] The catheter balloon tip is advanced cephaled to the aortic arch region as determined through external catheter demarcations and inflated to a pre-established maximum diameter with approximately 900 mm Hg air pressure. […]

[4] = tested on: Smooth muscle cells (explants of bovine aortic media); experiment: Smooth muscle cell number, 72 h incubation with mitogen (Example 1, Table I); type: cell-based; conditions: for Cell Number/Plate: 72 h, mean ± SEM, n = 6; for smooth muscle proliferation in cell culture: with and without 2% human platelet-poor plasma
Protocol: After the 72-hour incubation period, the cells are harvested for cell-number determination by Coulter Counter.

[5] = tested on: Smooth muscle cells (explants of bovine aortic media); conditions: shown by others; cited from earlier work

CN1CCC(=C2c3ccccc3C=Cc3ccccc32)CC1 [Cyproheptadine]
effect on 3H-thymidine incorporation / response to serotonin (Smooth muscle cells; PDGF 1 ng/ml): attenuates this response to serotonin | effect on serotonin-induced increase in smooth muscle cell number [1]: attenuated

CSc1ccc2c(c1)C(N1CCN(C)CC1)Cc1ccccc1S2 (centres unmarked) [Methiothepin]
inhibition of injury-induced smooth muscle cell proliferation ([2]; b.i.d.): marked inhibition; also recorded: remarkably effective | dose dependent Specific Activity, methiothepin ([2]; methiothepin 0.3 mg/kg): 51 | dose dependent Specific Activity, methiothepin ([2]; methiothepin 1.0 mg/kg): 24 | dose dependent Specific Activity, methiothepin ([2]; methiothepin 3.0 mg/kg): 23 | Specific Activity of aortic smooth muscle cell DNA ([2]; methiothepin 10 mg/kg i.p., b.i.d., control 91.6 ± 13.7, mean ± standard error (N = 6)): 18.1 ± 5.3 CPM/ugDNA | dose dependent Specific Activity, methiothepin ([2]; methiothepin 10.0 mg/kg): 20 | Specific Activity for smooth muscle cell DNA, repeat test [2]: 23 % of control

CN1CCC(=C2c3ccccc3CCc3sccc32)CC1 [Pizotyline, 4-[1-methyl-4-piperidylidene]-9,10-dihydro-4H-benzo[4,5]cyclohepta[1,2-b]thiophene]
inhibition of injury-induced smooth muscle cell proliferation ([2]; b.i.d.): remarkably effective | Mean Lesion Area, Abdominal ([3]; abdominal, 2 days before and 14 days after, normalized to 1,000 μm length, control 60,310.3): 27,135.4 Square Microns | reduction of lesion formation, abdominal segments ([3]; abdominal, compared to control): 55% | Mean Lesion Area, Thoracic ([3]; thoracic, 2 days before and 14 days after, normalized to 1,000 μm length, control 50,283.1): 11,834.8 Square Microns | mean reduction of lesion formation, thoracic segments ([3]; thoracic, compared to control lesion areas): 77%

COC(=O)[C@H]1[C@H]2C[C@@H]3c4[nH]c5cc(OC)ccc5c4CCN3C[C@H]2C[C@@H](OC(=O)c2cc(OC)c(OC)c(OC)c2)[C@@H]1OC [Reserpine]
Specific Activity for smooth muscle cell DNA, repeat test [2]: 68 % of control

NCCc1c[nH]c2ccc(O)cc12 [Serotonin]
inhibition of injury-induced smooth muscle cell proliferation ([2]; b.i.d.): important in mediating smooth muscle cell proliferation after vascular injury | effect on 3H-thymidine incorporation / response to serotonin (Smooth muscle cells; PDGF 1 ng/ml): stimulates smooth muscle cell proliferation | CPM/Well (3H-thymidine incorporation) (Smooth muscle cells; serotonin 10^-6 M): 306.4 ± 3.1 CPM/Well (×10^-3) | % Increase (3H-thymidine incorporation) (Smooth muscle cells; serotonin 10^-6 M): 240% | CPM/Well (3H-thymidine incorporation) (Smooth muscle cells; serotonin 10^-7 M): 139.8 ± 11.9 CPM/Well (×10^-3) | % Increase (3H-thymidine incorporation) (Smooth muscle cells; serotonin 10^-7 M): 55% | effect on serotonin-induced increase in smooth muscle cell number [1]: increases the number of smooth muscle cells | Cell Number/Plate ([1]; serotonin 10^-5 M): 7.68 ± 0.12 ×10^-5 | % Maximum ([1]; serotonin 10^-5 M, relative to 10% Fetal Calf Serum = 100): 33% | Cell Number/Plate ([4]; No Plasma, serotonin 10^-5 M): 8.34 ± 0.43 ×10^-5 | Cell Number/Plate ([4]; Plasma (2% human platelet-poor plasma), serotonin 10^-5 M): 12.19 ± 0.13 ×10^-5 | smooth muscle proliferation in cell culture [4]: more smooth muscle cells are present; also recorded: potent promoter of smooth muscle proliferation

PDGF
CPM/Well (3H-thymidine incorporation) (Smooth muscle cells; PDGF 1 ng/ml): 454.7 ± 28.3 CPM/Well (×10^-3) | % Increase (3H-thymidine incorporation) (Smooth muscle cells; PDGF 1 ng/ml): 405% | effect on 3H-thymidine incorporation / response to serotonin (Smooth muscle cells; PDGF 1 ng/ml): increase thymidine incorporation | Cell Number/Plate ([1]; PDGF 0.5 ng/ml, alone or with serotonin / cyproheptadine as in label): 8.11 ± 0.23 ×10^-5 | % Maximum ([1]; PDGF 0.5 ng/ml, alone or with serotonin / cyproheptadine as in label, relative to 10% Fetal Calf Serum): 39% | Cell Number/Plate ([1]; PDGF 4.0 ng/ml, alone or with serotonin / cyproheptadine as in label): 10.66 ± 0.16 ×10^-5 | % Maximum ([1]; PDGF 4.0 ng/ml, alone or with serotonin / cyproheptadine as in label, relative to 10% Fetal Calf Serum): 72% | mitogen for smooth muscle cells [5]: mitogen for smooth muscle cells | Cell Number/Plate ([4]; No Plasma, PDGF 8 ng/ml): 9.65 ± 0.29 ×10^-5 | Cell Number/Plate ([4]; Plasma (2% human platelet-poor plasma), PDGF 8 ng/ml): 14.24 ± 0.04 ×10^-5 | smooth muscle proliferation in cell culture [4]: active

Source: patent US4444778A, “Method and composition for treating atherosclerosis” (priority 1982, dated 1984)
